Tests used:
Format in all cases: cell-based, human
XBP1 = assay: PCR analysis of XBP1 splicing; settings: CP 2.5 μM, 12 h
Experimental: (§1) Moreover we found an increase in CHOP expression starting from 3 h of CP treatment. […] Whilst GRP78, due to its chaperon activity, exerts a protective function, CHOP promotes ER-stress cell death, thus the rapid activation of pro-death signals and the late activation of pro-survival chaperone GRP78 could explain the commitment toward apoptosis induced by CP. Moreover, in unresolvable stress conditions, an increased CHOP expression has been correlated to the induction of the expression of many apoptotic genes and to the down-regulation prosurvival genes, such as Bcl-2 [30].
(§2) FIGURE 4 CP induces ER stress Western Blot analysis showing expression of GRP78 and CHOP in SEM (A) and in RS4;11 (B) cells. Cells were treated with CP 2.5 μM for the indicated times. (C) PCR analysis showing the induction of XBP1 splicing in SEM and RS4;11 cells. Cells were treated with CP (2.5 μM) or Tunicamycin (2 μg/ml) as positive control for 12 h.
Cells were treated with CP and Tunicamycin as positive control, collected, centrifuged and washed with PBS. Total RNA was extracted from cells using Trizol (Life Technologies, Italy) as previously described. Primer pair used to amplified XBP1 isoforms: forward 5'-[…]-3', reverse 5'-[…]-3'. To separate isoforms, PCR products were run in 5% agarose gel.

RS4;11 and SEM cells [1] = assay: Cytochrome c release by flow cytometry; settings: CP 2.5 μM, 24 h
Experimental: (§3) To determine whether the apoptotic stimuli involved mitochondria alteration, we examined the mitochondrial transmembrane potential (ΔΨmt) by means of the fluorescence dye JC-1.
(§4) FIGURE 2 CP induces caspase-dependent apoptosis without mitochondria involvement (A) Assessment of mitochondrial membrane potential (ΔΨmt) after treatment of RS4;11 and SEM cells with CP (2.5 μM) for the indicated times. Cells were stained with the fluorescent probe JC-1. Data are represented as mean ± S.E.M. of three independent experiments. (B) Flow cytometric analysis of RS4;11 and SEM cells treated with CP (2.5 μM) for 24 h showing cytochrome c labeled with a monoclonal antibody conjugated to FITC. Representative image of three experiments with similar results. (C) Cells were incubated with CP 2.5 μM and 5 μM in the presence or absence of the pan-caspase inhibitor z-VAD.fmk (100 μM). Cell viability was determined after 48 h by MTT assay. […]
(§5) The mitochondrial membrane potential was measured with the lipophilic cation 5,5',6,6'-tetrachlo-1,1',3,3'-tetraethylbenzimidazolyl-carbocyanine (JC-1) (Life Technologies, Italy) as previously described. Cytochrome c release was analyzed by flow cytometry using a commercial kit (Innocyte flow cytometric cytochrome c release kit, Calbiochem, Italy) following the manufacturer's instructions.

RS4;11 and SEM cells [2] = assay: Cell cycle distribution by flow cytometry (PI); settings: 24 h, different concentrations
Experimental: FIGURE 1 CP uptake and effects on cell cycle and apoptosis induction A) RS4;11, SEM, THP1, Jurkat cell lines and healthy PBMC were incubated with 6.25, 12.5 and 25 μM of CP for 24 h. The intracellular accumulation of CP was detected by GF-AAS analysis. B) SEM and RS4;11 cells were treated with the indicated concentrations of CP for 24 h, cell cycle distribution and Sub-G1 contents were analyzed by flow cytometry after cell staining with PI. The percentages of each phase of the cell cycle (G1, S, G2/M) were calculated on living cells whereas the percentages of cells with hypodiploid DNA content peak (subG1) was referred to cell population characterized by the appearance of subG1 peak. C) SEM and RS4;11 cells were incubated with 2.5 μM CP for the indicated times and analyzed by flow cytometry after double staining with Annexin-V-FITC and PI. Data are represented as mean ± S.E.M. of three independent experiments.
The effects of different concentrations of CP on cell cycle progression were examined in RS4;11 and SEM cells after 24 h of treatment.
5×10^5 RS4;11 and SEM cells in exponential growth were treated with different concentrations of CP for different times. After the incubation, cells were collected, centrifuged and fixed with ice-cold ethanol (70%) and stained with PI as described previously. DNA histograms were analyzed using Multicycle for Windows (Phoenix Flow Systems)

Bcl-2 = assay: Western blot, Bcl-2; settings: SEM and RS4;11, CP 2.5 μM
Experimental: as §4, with “assay. Data are represented as mean ± S.E.M. of three independent experiments performed in triplicate. *p<0.01 vs CP alone. (D) Western blot analysis of Bcl-2, cleaved caspase-12, caspase-9, cleaved caspase-7, caspase-3 and PARP after treatment of SEM and RS4;11 cells with CP (2.5 μM) for the indicated times. To confirm equal protein loading, each membrane was stripped and reprobed with anti-β-actin antibody.” for “assay.”
(§6) Cells were treated with CP and, after different times, were collected, centrifuged and washed with ice cold phosphate-buffered saline (PBS). […] The protein concentration in the supernatant was determined using the BCA protein assay (Pierce, Italy). […]

Resting healthy PBMC = assay: MTT growth inhibition, 72 h; settings: mean ± SE
RS4;11 and SEM cells [3] = assay: Mitochondrial transmembrane potential, JC-1; settings: CP 2.5 μM
Experimental: as §3, §4, §5

GRP78 = assay: Western blot, ER stress marker GRP78
Experimental: as §1, §2
Cells were treated with CP and, after different times, were collected, centrifuged and washed with ice cold phosphate-buffered saline (PBS). The pellet was then resuspended in lysis buffer as described. The protein concentration in the supernatant was determined using the BCA protein assay (Pierce, Italy). […]

[4] = system: caspase-9, caspase-3 and -7; assay: Western blot, caspase-9, cleaved caspase-7, caspase-3 and PARP; settings: SEM and RS4;11, CP 2.5 μM
Experimental: as §4, with “assay. Data are represented as mean ± S.E.M. of three independent experiments performed in triplicate. *p<0.01 vs CP alone. (D) Western blot analysis of Bcl-2, cleaved caspase-12, caspase-9, cleaved caspase-7, caspase-3 and PARP after treatment of SEM and RS4;11 cells with CP (2.5 μM) for the indicated times. To confirm equal protein loading, each membrane was stripped and reprobed with anti-β-actin antibody.” for “assay.”
as §6

caspase-12 = assay: Western blot, cleaved caspase-12
Experimental: as §4, with “assay. Data are represented as mean ± S.E.M. of three independent experiments performed in triplicate. *p<0.01 vs CP alone. (D) Western blot analysis of Bcl-2, cleaved caspase-12, caspase-9, cleaved caspase-7, caspase-3 and PARP after treatment of SEM and RS4;11 cells with CP (2.5 μM) for the indicated times. To confirm equal protein loading, each membrane was stripped and reprobed with anti-β-actin antibody.” for “assay.”
as §6

Compound: F[P-](F)(F)(F)(F)F.OCP(CO)CO.OCP(CO)CO.OCP(CO)CO.OCP(CO)CO.[Cu+] [CP, [Cu(thp)4][PF6]]
- XBP1 splicing (XBP1): induced XBP1 splicing in both cell lines
- cytochrome c release (RS4;11 and SEM cells [1]): did not reveal cytochrome c release
- cell population with hypodiploid DNA content peak (subG1) (RS4;11 and SEM cells [2]): concentration-dependent increase
- effect on cell cycle progression (RS4;11 and SEM cells [2]): did not affect cell cycle
- time at which decrease of Bcl-2 expression is detectable (Bcl-2): ≥ 3 h
- GI50 (Resting healthy PBMC): 22.7 ± 2.9 µM
- percentage of cells with low ΔΨmt (RS4;11 and SEM cells [3]): slightly increased, only after 12 h
- time of remarkable increase of GRP78 expression (GRP78; RS4;11, CP 2.5 μM): 12 h
- time of remarkable increase of GRP78 expression (GRP78; SEM, CP 2.5 μM): 6 h
- onset of caspase-9 activation and cleavage of caspase-3 and -7 [4]: ≥ 6 h
- onset of caspase-12 activation (caspase-12; RS4;11, CP 2.5 μM): ≥ 1.5 h
- onset of caspase-12 activation (caspase-12; SEM, CP 2.5 μM): ≥ 3 h

— paper PMC4171606, “A novel copper(I) complex induces ER-stress-mediated apoptosis and sensitizes B-acute lymphoblastic leukemia cells to chemotherapeutic agents” (Oncotarget, 2014)
